Reference: publication PMC3510508, “Rbg1–Tma46 dimer structure reveals new functional domains and their role in polysome recruitment” (Nucleic Acids Research, 2012)

Legend:
Rbg1fl–Tma46_205–345 [1] = target: T1, Rbg1fl–Tma46_205–345 (Saccharomyces cerevisiae, UniProt P39729); assay: thermal shift assay (Sypro Orange); type: binding; conditions: 150 mM NaCl, 20 mM Tris pH 7.5, 2 mM DTT, ~0.05 mM protein
T1 construct: gene RBG1; 6His-tagged full-length Rbg1 (N-terminal tag) co-expressed in E. coli with Tma46 residues 205-345; heterodimer; with Translation machinery-associated protein 46
T1 sequence (P39729 1-369): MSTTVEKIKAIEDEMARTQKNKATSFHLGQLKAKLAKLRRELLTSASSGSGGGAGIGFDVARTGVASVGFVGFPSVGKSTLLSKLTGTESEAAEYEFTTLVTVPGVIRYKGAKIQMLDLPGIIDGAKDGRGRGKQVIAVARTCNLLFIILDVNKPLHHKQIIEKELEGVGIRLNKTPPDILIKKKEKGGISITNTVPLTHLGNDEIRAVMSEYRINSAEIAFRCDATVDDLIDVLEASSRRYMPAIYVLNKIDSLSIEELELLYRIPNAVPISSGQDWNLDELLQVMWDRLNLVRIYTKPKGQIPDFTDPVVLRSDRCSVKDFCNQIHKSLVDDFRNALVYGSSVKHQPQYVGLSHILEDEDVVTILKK
T1 sequence (Q12000 205-345 partner): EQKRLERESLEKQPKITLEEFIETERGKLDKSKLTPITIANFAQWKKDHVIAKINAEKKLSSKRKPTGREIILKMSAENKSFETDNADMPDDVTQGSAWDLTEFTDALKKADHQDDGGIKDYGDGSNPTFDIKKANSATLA

Drg1fl–Lerepo4_220–396 = target: T2, Drg1fl–Lerepo4_220–396 (Homo sapiens, UniProt Q9Y295); assay: malachite green phosphate release; type: biochemical; conditions: 100 mM KCl, 50 mM Tris pH 7.5, 5 mM MgCl2, 37°C, 1 h, 20 μM protein
T2 construct: gene DRG1; recombinant full-length Drg1 with C-terminal Lerepo4 fragment; with Zinc finger CCCH domain-containing protein 15
T2 sequence (Q9Y295 2-367): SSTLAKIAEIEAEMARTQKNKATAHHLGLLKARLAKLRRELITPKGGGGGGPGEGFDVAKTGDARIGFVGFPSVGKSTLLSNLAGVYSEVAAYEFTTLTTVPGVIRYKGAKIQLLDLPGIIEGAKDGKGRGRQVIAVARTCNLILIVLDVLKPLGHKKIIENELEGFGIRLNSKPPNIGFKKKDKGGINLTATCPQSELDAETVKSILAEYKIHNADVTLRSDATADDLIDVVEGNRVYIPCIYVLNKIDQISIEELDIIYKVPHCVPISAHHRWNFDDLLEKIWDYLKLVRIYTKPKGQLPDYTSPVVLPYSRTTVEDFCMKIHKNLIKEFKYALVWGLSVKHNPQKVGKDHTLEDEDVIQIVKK
T2 sequence (Q8WU90 220-396 partner): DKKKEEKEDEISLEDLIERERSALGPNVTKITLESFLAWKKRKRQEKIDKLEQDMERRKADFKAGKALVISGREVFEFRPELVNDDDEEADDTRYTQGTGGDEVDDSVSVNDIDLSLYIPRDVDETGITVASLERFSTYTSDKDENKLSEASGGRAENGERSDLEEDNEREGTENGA
Excerpt: malachite green phosphate release on Drg1fl–Lerepo4_220–396

Rbg1fl–Tma46_205–345 [2] = target: T3, Rbg1fl–Tma46_205–345 (Saccharomyces cerevisiae, UniProt P39729); assay: malachite green phosphate release; type: biochemical; conditions: 100 mM KCl, 50 mM Tris pH 7.5, 5 mM MgCl2, 37°C, 1 h, 20 μM protein
T3 construct: gene RBG1; 6His-tagged full-length Rbg1 (N-terminal tag) co-expressed in E. coli with Tma46 residues 205-345; heterodimer; with Translation machinery-associated protein 46
T3 sequence (P39729 1-369): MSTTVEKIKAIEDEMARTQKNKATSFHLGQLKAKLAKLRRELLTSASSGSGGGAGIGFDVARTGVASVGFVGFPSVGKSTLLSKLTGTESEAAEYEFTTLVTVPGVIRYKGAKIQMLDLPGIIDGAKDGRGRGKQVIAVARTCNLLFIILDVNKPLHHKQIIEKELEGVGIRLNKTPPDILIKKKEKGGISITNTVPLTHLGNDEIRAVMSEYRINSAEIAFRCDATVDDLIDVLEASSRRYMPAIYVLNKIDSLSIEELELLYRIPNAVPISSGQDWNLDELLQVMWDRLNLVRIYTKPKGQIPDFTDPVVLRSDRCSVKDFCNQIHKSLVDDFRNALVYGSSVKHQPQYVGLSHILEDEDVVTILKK
T3 sequence (Q12000 205-345 W249A/K250E partner): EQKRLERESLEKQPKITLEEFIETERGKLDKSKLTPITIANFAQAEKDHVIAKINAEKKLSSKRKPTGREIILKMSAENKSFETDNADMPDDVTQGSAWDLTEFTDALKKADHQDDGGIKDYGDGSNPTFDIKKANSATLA
Excerpt: (§1) malachite green phosphate release on Rbg1fl–Tma46_205–345

Rbg1fl–Tma46_205–345 [3] = target: T4, Rbg1fl–Tma46_205–345 (Saccharomyces cerevisiae, UniProt P39729); assay: malachite green phosphate release; type: biochemical; conditions: 100 mM KCl, 50 mM Tris pH 7.5, 5 mM MgCl2, 37°C, 1 h, 20 μM protein; remark: listed apart in the source
T4 construct: gene RBG1; 6His-tagged full-length Rbg1 (N-terminal tag) co-expressed in E. coli with Tma46 residues 205-345; heterodimer; with Translation machinery-associated protein 46
T4 sequence (P39729 1-369): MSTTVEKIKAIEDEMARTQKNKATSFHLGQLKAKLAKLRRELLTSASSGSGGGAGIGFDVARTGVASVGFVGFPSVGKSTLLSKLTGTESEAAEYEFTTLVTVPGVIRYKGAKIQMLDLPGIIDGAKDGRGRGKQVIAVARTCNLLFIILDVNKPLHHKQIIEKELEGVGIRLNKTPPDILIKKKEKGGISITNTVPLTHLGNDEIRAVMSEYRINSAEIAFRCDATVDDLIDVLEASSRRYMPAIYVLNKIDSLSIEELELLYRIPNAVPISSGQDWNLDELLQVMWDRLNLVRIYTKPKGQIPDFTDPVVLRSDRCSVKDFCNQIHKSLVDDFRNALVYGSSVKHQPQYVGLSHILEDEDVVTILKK
T4 sequence (Q12000 205-345 I241A partner): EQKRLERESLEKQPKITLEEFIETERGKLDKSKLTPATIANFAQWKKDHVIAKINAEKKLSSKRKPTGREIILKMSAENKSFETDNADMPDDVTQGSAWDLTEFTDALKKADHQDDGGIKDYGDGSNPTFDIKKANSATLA
Excerpt: as §1

Rbg1fl–Tma46_205–345 [4] = target: T5, Rbg1fl–Tma46_205–345 (Saccharomyces cerevisiae, UniProt P39729); assay: malachite green phosphate release; type: biochemical; conditions: 100 mM KCl, 50 mM Tris pH 7.5, 5 mM MgCl2, 37°C, 1 h, 20 μM protein; remark: listed apart in the source
T5 construct: gene RBG1; 6His-tagged full-length Rbg1 (N-terminal tag) co-expressed in E. coli with Tma46 residues 205-345; heterodimer; with Translation machinery-associated protein 46
T5 sequence (P39729 1-369): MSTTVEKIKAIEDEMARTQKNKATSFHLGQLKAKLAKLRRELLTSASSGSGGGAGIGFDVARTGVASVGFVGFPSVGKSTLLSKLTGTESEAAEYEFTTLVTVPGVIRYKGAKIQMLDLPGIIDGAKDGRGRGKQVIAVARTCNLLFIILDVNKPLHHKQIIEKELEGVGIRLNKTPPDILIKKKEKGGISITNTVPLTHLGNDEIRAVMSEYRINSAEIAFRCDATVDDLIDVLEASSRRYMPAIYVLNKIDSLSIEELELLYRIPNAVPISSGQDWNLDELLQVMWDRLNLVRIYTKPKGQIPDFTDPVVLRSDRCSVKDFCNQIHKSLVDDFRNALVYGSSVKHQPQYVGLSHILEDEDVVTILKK
T5 sequence (Q12000 205-345 I241A/F246A partner): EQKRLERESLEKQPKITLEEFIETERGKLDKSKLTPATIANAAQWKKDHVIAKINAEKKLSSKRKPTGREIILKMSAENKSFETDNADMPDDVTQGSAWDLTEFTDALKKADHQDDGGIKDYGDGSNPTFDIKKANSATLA
Excerpt: as §1

[5] = target: human Drg1 full length (human) (UniProt Q9Y295)
[6] = substrate: Nc1nc2c(ncn2[C@@H]2O[C@H](COP(=O)(O)OP(=O)(O)OP(=O)(O)O)[C@@H](O)[C@H]2O)c(=O)[nH]1; assay: malachite green phosphate release; type: biochemical, Saccharomyces cerevisiae; conditions: 100 mM KCl, 50 mM Tris pH 7.5, 5 mM MgCl2, 37°C, 1 h, 20 μM protein
Excerpt: as §1

For `Nc1nc2c(ncn2[C@@H]2O[C@H](COP(=O)(O)OP(=O)(O)OP(=O)(O)O)[C@@H](O)[C@H]2O)c(=O)[nH]1` [GTP], the “increase in melting temperature” value (Rbg1fl–Tma46_205–345 [1]; 0.2 mM GTP) was “increased melting temperature in the presence of the GDP, GTP or non-hydrolysable GTPγS”, the Km (Drg1fl–Lerepo4_220–396) was 319 ± 35 µM and the Km (Rbg1fl–Tma46_205–345 [2]) was 426 ± 52.6 µM. For the same molecule, the Km (Rbg1fl–Tma46_205–345 [3]) was 186 ± 34.5 µM and the Km (Rbg1fl–Tma46_205–345 [4]) was 429 ± 94.7 µM.

With “Lerepo4_(220–396) (from UniProt Q8WU90 220-396) (domain or fragment)” the GTP hydrolysis (Malachite green), Vmax of the complex; free Drg1 showed significantly reduced activity (nmol min^−1 mg^−1) [5] was 0.115 and the GTP hydrolysis (Malachite green), kcat of the complex [5] was 0.000123 s⁻¹.

With `Nc1nc2c(ncn2[C@@H]2O[C@H](COP(=O)(O)OP(=O)(O)O)[C@@H](O)[C@H]2O)c(=O)[nH]1` [GDP] the “increase in melting temperature” value (Rbg1fl–Tma46_205–345 [1]; 0.2 mM GDP) was “increased melting temperature in the presence of the GDP, GTP or non-hydrolysable GTPγS”.

With `Nc1nc2c(ncn2[C@@H]2O[C@H](COP(=O)(O)OP(=O)(O)OP(O)(O)=S)[C@@H](O)[C@H]2O)c(=O)[nH]1` [GTPγS] the “increase in melting temperature” value (Rbg1fl–Tma46_205–345 [1]; 0.5 mM GTPγS in methods (0.2 mM also stated in Figure 4 legend)) was “increased melting temperature in the presence of the GDP, GTP or non-hydrolysable GTPγS”.

B1: Rbg1fl–Tma46_205–345 (Saccharomyces cerevisiae S288C) (protein)
chain: MSTTVEKIKAIEDEMARTQKNKATSFHLGQLKAKLAKLRRELLTSASSGSGGGAGIGFDVARTGVASVGFVGFPSVGKSTLLSKLTGTESEAAEYEFTTLVTVPGVIRYKGAKIQMLDLPGIIDGAKDGRGRGKQVIAVARTCNLLFIILDVNKPLHHKQIIEKELEGVGIRLNKTPPDILIKKKEKGGISITNTVPLTHLGNDEIRAVMSEYRINSAEIAFRCDATVDDLIDVLEASSRRYMPAIYVLNKIDSLSIEELELLYRIPNAVPISSGQDWNLDELLQVMWDRLNLVRIYTKPKGQIPDFTDPVVLRSDRCSVKDFCNQIHKSLVDDFRNALVYGSSVKHQPQYVGLSHILEDEDVVTILKK
notes: 6His-tagged full-length Rbg1 (N-terminal tag) co-expressed in E. coli with Tma46 residues 205-345; heterodimer; with Translation machinery-associated protein 46
For B1, the Km [6] was 304.1 ± 32.5 µM, the Vmax [6] was 5.93e-05 µmol/min/mg and the kcat [6] was 5.67e-05 s⁻¹.
